This is an account of results in patent US20230066011A1, “PYRROLOPYRIMIDINE DERIVATIVE, AND PHARMACEUTICAL COMPOSITION FOR PREVENTING OR TREATING PROTEIN KINASE-RELATED DISEASE COMPRISING SAME AS ACTIVE INGREDIENT” (VORONOI CO., LTD., priority 2019, published 2023).

The test system of one assay is MDA-MB-231 cell line. Description: Inhibition of proliferation of MDA-MB-231 cancer cells (Cell Titer-Glo). The class given is cell-based. The conditions noted are these: Homo sapiens, 72 hours. The gist of the method:
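A 72-hour treatment with compound (eleven final concentrations, 3-fold apart, top 10 μM) of cells seeded at 2,000 per well preceded a Cell Titer-Glo luminescence read, from which GI50 was obtained.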
(Cellular ATP, detected with luciferase, serves as a proxy for viable cell number.)

A further assay deals with SHP-77. Nature of the assay: Inhibition of proliferation of SHP-77 cancer cells (Cell Titer-Glo). The assay is classed as cell-based. The conditions noted are these: Homo sapiens, SHP77, 72 hours. Here is the method:
To evaluate an inhibitory effect on the proliferation of cancer cells, each of an MDA-MB-231 cell line (Korean Cell Line Bank #30026) and an MDA-MB-468 cell line as triple-negative breast cancer cell lines, and SHP-77 (ATCC #CRL-2195) as a small-cell lung cancer cell line was cultured in DMEM (HyClone #SH30243) or an RPMI medium (HyClone #SH3027.01) to analyze a cell growth rate. More specifically, a cell line was plated on a 96-well flat bottom plate (Corning #3903) at a density of 2,000 cells/100 μL per well, and then treated with 11 concentrations of the Example compound, a solution of which was diluted 3-fold so that a final concentration of the compound was 10.000000, 3.333333, 1.111111, 0.370370, 0.123457, 0.041152, 0.013717, 0.004572, 0.001524, 0.000508, and 0.000169 μM. After 72 hours, each of the culture media was treated with 100 μL of Cell Titer-Glo (Promega G7573), and then cultured at room temperature for 10 minutes. Then, a degree of luminescence was measured using a microplate reader. A GI50 value was calculated from the measured degree of luminescence using Prism (Version 8.2 GraphPad) software.

For the next assay, the target named is T1, human GST-DYRK1A (Homo sapiens, UniProt Q13627).
T1 construct: purified human GST-DYRK1A (full length, Thermo Scientifics) enzyme; purchased Thermo Scientifics
Description: GST-DYRK1A enzyme inhibition, ADP-Glo kinase assay. The class given is biochemical. Particulars: ATP 10 μM, GST-DYRK1A full length, read-out: DYRK1 IC50. The gist of the method:
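Full-length enzyme (10 ng) was incubated with 10 μM ATP and a specific substrate for 1 h at 25 °C in 40 mM Tris-HCl pH 7.4, 20 mM MgCl2, 0.5 mg/mL BSA, 50 μM DTT. Luminescence was read against a solvent control, and IC50 values were derived from 3 data sets.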
A general note: ADP-Glo turns the ADP formed in a reaction into a luminescent signal.

In a further assay the target is T2, human GST-CLK1 (Homo sapiens, UniProt P49759).
T2 construct: purified human GST-CLK1 (129-end, SignalChem) enzyme; purchased SignalChem
T2 sequence (P49759 129-484 limits assumed): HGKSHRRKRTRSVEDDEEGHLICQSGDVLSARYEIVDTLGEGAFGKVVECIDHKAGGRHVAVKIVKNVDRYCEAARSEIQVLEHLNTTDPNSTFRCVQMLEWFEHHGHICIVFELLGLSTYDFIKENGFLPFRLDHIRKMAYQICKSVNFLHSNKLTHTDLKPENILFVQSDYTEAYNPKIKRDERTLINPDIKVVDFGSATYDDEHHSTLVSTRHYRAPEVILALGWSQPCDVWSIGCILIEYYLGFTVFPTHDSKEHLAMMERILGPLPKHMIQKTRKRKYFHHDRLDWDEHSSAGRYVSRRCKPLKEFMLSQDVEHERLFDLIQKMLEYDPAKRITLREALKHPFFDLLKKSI
Description: GST-CLK1 enzyme inhibition, ADP-Glo kinase assay. The assay is classed as biochemical. The conditions noted are these: ATP 10 μM, GST-CLK1 129-end. Put shortly:
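ADP-Glo luminescence read-out, relative to untreated solvent control, gave IC50 (nM) from triplicate data sets. Reactions ran an hour at 25° C with 3 ng GST-CLK1 (residues 129-end), 10 μM ATP and specific substrate in Tris-HCl pH 7.4 buffer with MgCl2, BSA and DTT.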

A further assay has as its target LRRK2 (G2019S) (Homo sapiens, UniProt Q5S007, G2019S). Description: LRRK2 G2019S enzyme inhibition, ADP-Glo kinase assay. More on the design: purchased SignalChem L10-12GG. The conditions noted are these: ATP 25 μM. The assay is classed as biochemical. Put shortly:
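IC50 derived from luminescent ADP-Glo readout against untreated solvent control, twelve final compound concentrations from 50 μM downward. Reaction: recombinant human LRRK2 G2019S enzyme, 25 μM ATP, substrate, pH 7.4 Tris buffer with MgCl2/BSA/DTT, 25° C. for 2 hours.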

In the next assay the target is LRRK2 (Homo sapiens, UniProt Q5S007). Description: LRRK2 enzyme inhibition, ADP-Glo kinase assay. The class given is biochemical. More on the design: purchased Invitrogen PR8604B. The conditions noted are these: ATP 10 μM. The gist of the method:
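ADP-Glo luminescent read-out of ADP formed by purified human LRRK2 enzyme (25 ng), 10 μM ATP, 0.2 μg substrate, 25° C for 2 h, Tris-HCl pH 7.4 buffer with MgCl2, BSA, DTT. Inhibition versus untreated solvent control over twelve final concentrations (50 μM downward) gives IC50.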

Sequence of LRRK2 (Q5S007 970-2527 limits assumed): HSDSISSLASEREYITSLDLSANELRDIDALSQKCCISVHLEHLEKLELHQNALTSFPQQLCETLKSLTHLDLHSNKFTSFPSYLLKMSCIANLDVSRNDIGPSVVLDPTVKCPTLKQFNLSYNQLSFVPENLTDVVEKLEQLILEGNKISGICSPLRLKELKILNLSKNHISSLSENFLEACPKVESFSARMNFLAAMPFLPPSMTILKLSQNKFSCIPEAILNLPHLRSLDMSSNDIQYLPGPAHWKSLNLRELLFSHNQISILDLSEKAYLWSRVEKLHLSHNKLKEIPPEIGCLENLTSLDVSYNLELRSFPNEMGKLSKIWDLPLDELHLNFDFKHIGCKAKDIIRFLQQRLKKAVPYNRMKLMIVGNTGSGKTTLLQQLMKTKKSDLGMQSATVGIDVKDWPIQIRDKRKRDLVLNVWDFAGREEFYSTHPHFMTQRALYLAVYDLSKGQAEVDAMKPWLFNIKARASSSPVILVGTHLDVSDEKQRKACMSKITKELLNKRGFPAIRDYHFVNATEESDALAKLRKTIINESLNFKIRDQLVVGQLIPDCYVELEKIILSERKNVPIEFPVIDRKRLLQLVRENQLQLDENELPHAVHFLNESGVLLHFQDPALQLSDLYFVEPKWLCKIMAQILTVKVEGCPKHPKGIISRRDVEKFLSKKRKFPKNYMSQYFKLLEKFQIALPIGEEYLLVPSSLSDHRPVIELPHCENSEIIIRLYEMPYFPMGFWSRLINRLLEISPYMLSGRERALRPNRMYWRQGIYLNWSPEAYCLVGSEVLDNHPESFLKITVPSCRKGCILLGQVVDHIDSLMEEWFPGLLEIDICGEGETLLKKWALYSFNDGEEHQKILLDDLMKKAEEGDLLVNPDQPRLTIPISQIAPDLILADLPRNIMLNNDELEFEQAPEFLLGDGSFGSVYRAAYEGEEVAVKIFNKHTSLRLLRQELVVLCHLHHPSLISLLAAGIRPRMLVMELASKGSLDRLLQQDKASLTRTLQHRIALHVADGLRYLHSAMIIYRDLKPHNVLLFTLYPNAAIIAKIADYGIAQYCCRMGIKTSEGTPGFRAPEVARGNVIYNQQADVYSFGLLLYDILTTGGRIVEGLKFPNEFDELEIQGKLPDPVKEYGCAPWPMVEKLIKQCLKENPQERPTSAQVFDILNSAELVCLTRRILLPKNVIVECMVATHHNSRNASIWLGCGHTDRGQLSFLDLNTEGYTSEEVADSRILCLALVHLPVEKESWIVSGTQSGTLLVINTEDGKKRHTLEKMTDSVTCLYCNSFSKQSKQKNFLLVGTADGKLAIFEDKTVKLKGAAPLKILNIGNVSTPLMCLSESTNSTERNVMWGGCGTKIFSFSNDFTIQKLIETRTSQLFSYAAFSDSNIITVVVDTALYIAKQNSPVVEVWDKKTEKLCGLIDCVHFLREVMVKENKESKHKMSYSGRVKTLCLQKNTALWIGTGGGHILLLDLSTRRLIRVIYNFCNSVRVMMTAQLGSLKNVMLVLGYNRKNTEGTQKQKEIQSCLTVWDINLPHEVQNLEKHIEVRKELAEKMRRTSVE
Sequence of LRRK2 (G2019S) (Q5S007 970-2527 G2019S limits assumed): as the sequence (Q5S007 970-2527 limits assumed) above, with G1050S counted along it

As a reminder, the GI50 is the concentration that inhibits growth by half. A word on the IC50: it is the concentration at which inhibition is half-maximal. Regarding `COc1cc(S(=O)(=O)N2CCOCC2)ccc1Nc1nc(NCC2CC2)c2c(C#N)c[nH]c2n1` [Example 77, 4-((cyclopropylmethyl)amino)-2-((2-methoxy-4-(morpholinosulfonyl)phenyl)amino)-7H-pyrrolo[2,3-d]pyrimidine-5-carbonitrile], the GI50 with MDA-MB-231 cell line and in the assay with SHP-77 was < 50 nM throughout. The IC50 on human GST-DYRK1A was 301 to 1000 nM; on human GST-CLK1 it was 301 to 1000 nM; against LRRK2 (G2019S), < 100 nM; against LRRK2, < 100 nM.
Take `COc1cc(S(=O)(=O)N2CCC(N3CCOCC3)CC2)ccc1Nc1nc(NC2CCC2)c2c(C#N)c[nH]c2n1` [Example 89, 4-(cyclobutylamino)-2-((2-methoxy-4-((4-morpholinopiperidin-1-yl)sulfonyl)phenyl)amino)-7H-pyrrolo[2,3-d]pyrimidine-5-carbonitrile]: the GI50 is < 50 nM with MDA-MB-231 cell line and 51 to 100 nM in the assay with SHP-77. Besides, the IC50 at human GST-DYRK1A is 301 to 1000 nM; at human GST-CLK1, 101 to 300 nM; on LRRK2 (G2019S) it was < 100 nM; against LRRK2, < 100 nM.
In the case of `CCCCNc1nc(Nc2ccc(S(=O)(=O)N3CCC(N4CCOCC4)CC3)cc2OC)nc2[nH]cc(C#N)c12` [Example 97, 4-(butylamino)-2-((2-methoxy-4-((4-morpholinopiperidin-1-yl)sulfonyl)phenyl)amino)-7H-pyrrolo[2,3-d]pyrimidine-5-carbonitrile], the GI50 in the assay with MDA-MB-231 cell line and in the assay on SHP-77 was < 50 nM in each case. In addition, the IC50 is 301 to 1000 nM at human GST-DYRK1A, 301 to 1000 nM against human GST-CLK1, < 100 nM against LRRK2 (G2019S) and < 100 nM against LRRK2.
For `CNc1nc(Nc2ccc(S(=O)(=O)N3CCOCC3)cc2OC)nc2[nH]cc(C(F)(F)F)c12` [Example 160, N^2-(2-methoxy-4-(morpholinosulfonyl)phenyl)-N^4-methyl-5-(trifluoromethyl)-7H-pyrrolo[2,3-d]pyrimidine-2,4-diamine], the GI50 in the assay on MDA-MB-231 cell line is 301 to 1000 nM; in the assay on SHP-77, 51 to 100 nM. The IC50 on human GST-DYRK1A was 301 to 1000 nM; against human GST-CLK1, 301 to 1000 nM; against LRRK2 (G2019S), 301 to 1000 nM; against LRRK2, < 100 nM.
For the molecule `COc1cc(S(=O)(=O)N2CCOCC2)ccc1Nc1nc(NC(C)C)c2c(C(F)(F)F)c[nH]c2n1` [Example 164, N^4-isopropyl-N^2-(2-methoxy-4-(morpholinosulfonyl)phenyl)-5-(trifluoromethyl)-7H-pyrrolo[2,3-d]pyrimidine-2,4-diamine], the GI50 in the assay with MDA-MB-231 cell line fell in the range of 301 to 1000 nM; with SHP-77, 51 to 100 nM. For the same molecule, the IC50 at human GST-DYRK1A was 301 to 1000 nM; on human GST-CLK1, 301 to 1000 nM; at LRRK2 (G2019S), 301 to 1000 nM; at LRRK2 it was < 100 nM.
Take `COc1cc(S(=O)(=O)N2CCC(N3CCOCC3)CC2)ccc1Nc1nc(NC(C)C)c2c(C(F)(F)F)c[nH]c2n1` [Example 165, N^4-isopropyl-N^2-(2-methoxy-4-((4-morpholinopiperidin-1-yl)sulfonyl)phenyl)-5-(trifluoromethyl)-7H-pyrrolo[2,3-d]pyrimidine-2,4-diamine]: the GI50 with MDA-MB-231 cell line is < 50 nM; with SHP-77, 51 to 100 nM. Moreover, the IC50 on human GST-DYRK1A was 301 to 1000 nM; on human GST-CLK1, 301 to 1000 nM; at LRRK2 (G2019S) it was 101 to 300 nM; at LRRK2, < 100 nM.
`COCCNc1nc(Nc2ccc(S(=O)(=O)N3CCC(N4CCOCC4)CC3)cc2OC)nc2[nH]cc(C(F)(F)F)c12` [Example 170, N^2-(2-methoxy-4-((4-morpholinopiperidin-1-yl)sulfonyl)phenyl)-N^4-(2-methoxyethyl)-5-(trifluoromethyl)-7H-pyrrolo[2,3-d]pyrimidine-2,4-diamine]: the GI50 in the assay on MDA-MB-231 cell line lay within 301 to 1000 nM; in the assay on SHP-77 it was 101 to 300 nM. Also, the IC50 at human GST-DYRK1A is 101 to 300 nM; against human GST-CLK1, < 100 nM; against LRRK2 (G2019S), < 100 nM; at LRRK2 it was < 100 nM.
Turning to `CC[C@@H](C)Nc1nc(Nc2ccc(S(=O)(=O)N3CCC(N4CCOCC4)CC3)cc2OC)nc2[nH]cc(C(F)(F)F)c12` [Example 172, (R)-N^4-(sec-butyl)-N^2-(2-methoxy-4-((4-morpholinopiperidin-1-yl)sulfonyl)phenyl)-5-(trifluoromethyl)-7H-pyrrolo[2,3-d]pyrimidine-2,4-diamine], the GI50 lay within 301 to 1000 nM with MDA-MB-231 cell line and 101 to 300 nM in the assay with SHP-77. For the same molecule, the IC50 at human GST-DYRK1A, against human GST-CLK1, on LRRK2 (G2019S) and on LRRK2 was 301 to 1000 nM each time.
`COCC(C)(C)Nc1nc(Nc2ccc(S(=O)(=O)N3CCOCC3)cc2OC)nc2[nH]cc(C(F)(F)F)c12` [Example 175, N^4-(1-methoxy-2-methylpropan-2-yl)-N^2-(2-methoxy-4-(morpholinosulfonyl)phenyl)-5-(trifluoromethyl)-7H-pyrrolo[2,3-d]pyrimidine-2,4-diamine]: the GI50 with MDA-MB-231 cell line fell in the range of 301 to 1000 nM; in the assay with SHP-77, 101 to 300 nM. Also, the IC50 at human GST-DYRK1A, on human GST-CLK1, against LRRK2 (G2019S) and on LRRK2 was 301 to 1000 nM each time.
For the molecule `COc1cc(S(=O)(=O)N2CCC(N3CCOCC3)CC2)ccc1Nc1nc(NC2CCC2)c2c(C(F)(F)F)c[nH]c2n1` [Example 183, N^4-cyclobutyl-N^2-(2-methoxy-4-((4-morpholinopiperidin-1-yl)sulfonyl)phenyl)-5-(trifluoromethyl)-7H-pyrrolo[2,3-d]pyrimidine-2,4-diamine], the concentration for 50% growth inhibition (GI50) in the assay with MDA-MB-231 cell line and with SHP-77 was 301 to 1000 nM in each case. The IC50 at human GST-DYRK1A was 301 to 1000 nM; against human GST-CLK1 it was 301 to 1000 nM; on LRRK2 (G2019S), 101 to 300 nM; at LRRK2 it was < 100 nM.
In the case of `CCNc1nc(Nc2ccc(S(=O)(=O)N3CCOCC3)cc2OC)nc2[nH]cc(C(F)(F)F)c12` [Example 191, N^4-ethyl-N^2-(2-methoxy-4-(morpholinosulfonyl)phenyl)-5-(trifluoromethyl)-7H-pyrrolo[2,3-d]pyrimidine-2,4-diamine], the GI50 fell in the range of 301 to 1000 nM in the assay on MDA-MB-231 cell line and 101 to 300 nM with SHP-77. In addition, the IC50 on human GST-DYRK1A lay within 301 to 1000 nM; against human GST-CLK1, 301 to 1000 nM; on LRRK2 (G2019S), 301 to 1000 nM; against LRRK2 it was 101 to 300 nM.
As to `COc1cc(S(=O)(=O)N2CCC(N3CCOCC3)CC2)ccc1Nc1nc(NCC2CCC2)c2c(C(F)(F)F)c[nH]c2n1` [Example 197, N^4-(cyclobutylmethyl)-N^2-(2-methoxy-4-((4-morpholinopiperidin-1-yl)sulfonyl)phenyl)-5-(trifluoromethyl)-7H-pyrrolo[2,3-d]pyrimidine-2,4-diamine], the GI50 in the assay with MDA-MB-231 cell line and in the assay with SHP-77 was 301 to 1000 nM throughout. Moreover, the IC50 on human GST-DYRK1A was 301 to 1000 nM; at human GST-CLK1, 301 to 1000 nM; against LRRK2 (G2019S) it was 101 to 300 nM; at LRRK2, < 100 nM.
Regarding `CCCCNc1nc(Nc2ccc(S(=O)(=O)N3CCC(N4CCOCC4)CC3)cc2OC)nc2[nH]cc(C(F)(F)F)c12` [Example 202, N^4-butyl-N^2-(2-methoxy-4-((4-morpholinopiperidin-1-yl)sulfonyl)phenyl)-5-(trifluoromethyl)-7H-pyrrolo[2,3-d]pyrimidine-2,4-diamine], the GI50 with MDA-MB-231 cell line and with SHP-77 was 301 to 1000 nM in each case. Further, the IC50 at human GST-DYRK1A is 301 to 1000 nM; against human GST-CLK1, 301 to 1000 nM; at LRRK2 (G2019S), 101 to 300 nM; at LRRK2, < 100 nM.
